Values joined by “and” are separate entries in the source; they are usually repeats but may differ in a detail not shown here. Identical values can stand only once.
Legend:
Assay in all cases: Kinase inhibition assay, IC50 (Table A)
Type in all cases: biochemical
ZAP70 = molecular target: T1, ZAP70 (Homo sapiens, UniProt P43403); details: Enzyme ZAP70
T1 sequence (P43403 1-619): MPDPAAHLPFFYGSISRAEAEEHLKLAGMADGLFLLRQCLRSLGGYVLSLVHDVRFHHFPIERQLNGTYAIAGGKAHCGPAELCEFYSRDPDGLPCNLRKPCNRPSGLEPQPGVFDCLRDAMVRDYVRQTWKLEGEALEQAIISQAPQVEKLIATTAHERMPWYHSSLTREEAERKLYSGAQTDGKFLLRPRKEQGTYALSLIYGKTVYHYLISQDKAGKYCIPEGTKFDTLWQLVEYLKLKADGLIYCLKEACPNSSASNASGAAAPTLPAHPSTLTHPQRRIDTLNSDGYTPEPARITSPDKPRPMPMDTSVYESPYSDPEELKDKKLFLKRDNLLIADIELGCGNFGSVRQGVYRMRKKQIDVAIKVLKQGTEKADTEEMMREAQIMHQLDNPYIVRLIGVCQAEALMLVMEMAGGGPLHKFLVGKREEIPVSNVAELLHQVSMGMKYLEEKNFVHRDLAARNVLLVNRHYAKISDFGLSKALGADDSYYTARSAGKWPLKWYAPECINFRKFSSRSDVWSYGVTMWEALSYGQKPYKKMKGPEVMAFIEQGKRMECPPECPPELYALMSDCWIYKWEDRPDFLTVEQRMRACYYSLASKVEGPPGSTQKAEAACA
Protocol: (§1) The inhibiting activity of putative kinase inhibitors and the potency of selected compounds is determined through a method of assay based on the use of the Kinase-Glo® Luminescent Kinase Assay (commercially available from Promega corporation and described in Koresawa, M. and Okabe, T. (2004) High-throughput screening with quantitation of ATP consumption: A universal non-radioisotope, homogeneous assay for protein kinase. Assay Drug Dev. Technol. 2, 153-60).
(§2) The inhibitory activity of putative kinase inhibitors and the potency of selected compounds were also determined using a trans-phosphorylation assay.
(§3) Specific peptide or protein substrates are trans-phosphorylated by their specific ser-thr or tyr kinase in the presence of ATP traced with ^33P-γ-ATP, and in the presence of their own optimal buffer and cofactors. At the end of the phosphorylation reaction, more than 98% unlabeled ATP and radioactive ATP is captured by an excess of the ion exchange dowex resin; the resin then settles down to the bottom of the reaction plate by gravity. Supernatant is subsequently withdrawn and transferred into a counting plate, then evaluated by β-counting.
(§4) Reaction conditions are target (enzyme) dependent and thus undergo individual adaptations. Also the buffer conditions may vary depending on the kinase of interest. The assay can be used with virtually any kinase and substrate combination and is suitable for all type of protein kinases, such as ABL, ACK1, AKT1, ALK, AUR1, AUR2, BRK, BUB1, CDC7/DBF4, CDK21CYCA, CHK1, CK2, EEF2K, EGFR1, EphA2, EphB4, ERK2, FAK, FGFR1, FLT3, GSK3beta, Haspin, IGFR1, IKK2, IR, JAK1, JAK2, JAK3, KIT, LCK, LYN, MAPKAPK2, MELK, MET, MNK2, MPSI, MST4, NEK6, NIM1, P38alpha, PAK-4, PDGFR, PDK1, PERK, PIM1, PIM2, PKAalpha, PKCbeta, PLK1, RET, ROS1, SULU1, Syk, TLK2, TRKA, TYK, VEGFR2, VEGFR3, ZAP70.

MELK = MELK (Homo sapiens, UniProt Q14680); details: Enzyme MELK
Chain of MELK (Q14680 whole entry): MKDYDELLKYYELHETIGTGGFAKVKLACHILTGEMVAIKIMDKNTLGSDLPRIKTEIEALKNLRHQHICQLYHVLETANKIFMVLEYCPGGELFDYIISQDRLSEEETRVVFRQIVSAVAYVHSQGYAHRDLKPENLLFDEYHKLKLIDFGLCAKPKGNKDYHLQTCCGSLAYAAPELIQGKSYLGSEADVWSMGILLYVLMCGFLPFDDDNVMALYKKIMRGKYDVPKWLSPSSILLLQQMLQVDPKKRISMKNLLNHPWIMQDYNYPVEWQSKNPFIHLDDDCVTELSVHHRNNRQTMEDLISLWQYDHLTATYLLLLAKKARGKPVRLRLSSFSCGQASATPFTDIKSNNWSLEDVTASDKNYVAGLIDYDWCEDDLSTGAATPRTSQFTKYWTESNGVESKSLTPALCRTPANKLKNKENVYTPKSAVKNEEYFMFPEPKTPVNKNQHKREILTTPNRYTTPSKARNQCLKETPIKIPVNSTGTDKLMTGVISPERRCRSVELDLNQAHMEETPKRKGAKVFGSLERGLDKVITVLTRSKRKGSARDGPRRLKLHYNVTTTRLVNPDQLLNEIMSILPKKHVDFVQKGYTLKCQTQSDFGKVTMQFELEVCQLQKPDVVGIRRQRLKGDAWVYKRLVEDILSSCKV
Protocol: as §1, §2, §3, §4

Syk = Syk (Homo sapiens, UniProt P43405); details: Enzyme Syk
Protocol: as §1, §2, §3, §4

LCK = LCK (Homo sapiens, UniProt P06239); details: Enzyme LCK
Chain of LCK (P06239 whole entry): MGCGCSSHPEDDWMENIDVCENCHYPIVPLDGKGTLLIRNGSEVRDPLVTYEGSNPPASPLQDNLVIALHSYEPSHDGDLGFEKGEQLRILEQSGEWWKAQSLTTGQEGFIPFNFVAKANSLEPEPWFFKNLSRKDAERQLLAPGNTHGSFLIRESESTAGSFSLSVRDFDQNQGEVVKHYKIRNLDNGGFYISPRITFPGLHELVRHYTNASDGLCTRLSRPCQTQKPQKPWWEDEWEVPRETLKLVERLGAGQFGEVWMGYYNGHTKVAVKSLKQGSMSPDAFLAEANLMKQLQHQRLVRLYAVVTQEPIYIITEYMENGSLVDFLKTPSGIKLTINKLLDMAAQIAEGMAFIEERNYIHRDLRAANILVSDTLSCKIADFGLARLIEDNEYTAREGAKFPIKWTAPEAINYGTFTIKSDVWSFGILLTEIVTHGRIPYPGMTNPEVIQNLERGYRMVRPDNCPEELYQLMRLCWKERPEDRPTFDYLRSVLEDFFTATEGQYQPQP
Protocol: as §1, §2, §3, §4

PKCbeta = PKCbeta (Homo sapiens, UniProt P05771); details: Enzyme PKCbeta
Protocol: as §1, §2, §3, §4

FGFR1 = FGFR1 (Homo sapiens, UniProt P11362); details: Enzyme FGFR1
Protocol: as §1, §2, §3, §4

VEGFR3 = VEGFR3 (Homo sapiens, UniProt P35916); details: Enzyme VEGFR3
Protocol: as §1, §2, §3, §4

BRK = BRK (Homo sapiens, UniProt Q13882); details: Enzyme BRK
Protocol: as §1, §2, §3, §4

ACK1 = ACK1 (Homo sapiens, UniProt Q07912); details: Enzyme ACK1
Chain of ACK1 (Q07912 whole entry): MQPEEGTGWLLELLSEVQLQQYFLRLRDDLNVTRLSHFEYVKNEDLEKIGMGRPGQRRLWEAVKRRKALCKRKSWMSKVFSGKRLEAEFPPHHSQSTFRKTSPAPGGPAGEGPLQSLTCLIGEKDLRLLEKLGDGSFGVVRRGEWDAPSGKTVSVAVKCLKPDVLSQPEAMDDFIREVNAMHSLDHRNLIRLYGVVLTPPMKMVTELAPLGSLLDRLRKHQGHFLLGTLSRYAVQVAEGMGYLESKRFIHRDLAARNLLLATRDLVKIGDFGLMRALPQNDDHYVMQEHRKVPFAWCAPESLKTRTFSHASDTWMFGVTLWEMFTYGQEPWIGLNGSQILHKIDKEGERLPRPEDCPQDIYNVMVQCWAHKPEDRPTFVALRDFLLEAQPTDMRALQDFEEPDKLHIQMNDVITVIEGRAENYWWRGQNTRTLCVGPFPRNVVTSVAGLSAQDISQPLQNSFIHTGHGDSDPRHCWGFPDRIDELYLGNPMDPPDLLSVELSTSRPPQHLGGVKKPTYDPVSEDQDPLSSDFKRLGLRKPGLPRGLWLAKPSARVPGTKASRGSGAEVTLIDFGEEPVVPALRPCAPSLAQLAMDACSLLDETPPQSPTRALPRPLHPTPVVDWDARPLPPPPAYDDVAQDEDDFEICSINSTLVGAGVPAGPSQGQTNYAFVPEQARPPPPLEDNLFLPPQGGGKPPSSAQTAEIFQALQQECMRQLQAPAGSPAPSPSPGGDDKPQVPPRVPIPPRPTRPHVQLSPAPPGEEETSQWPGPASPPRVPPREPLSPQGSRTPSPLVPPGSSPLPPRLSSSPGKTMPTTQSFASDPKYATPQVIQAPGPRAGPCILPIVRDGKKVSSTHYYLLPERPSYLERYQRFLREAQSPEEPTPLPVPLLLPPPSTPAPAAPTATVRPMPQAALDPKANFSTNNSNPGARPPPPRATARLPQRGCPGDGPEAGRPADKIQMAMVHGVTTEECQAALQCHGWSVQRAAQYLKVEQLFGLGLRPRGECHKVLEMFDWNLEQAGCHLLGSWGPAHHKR
Protocol: as §1, §2, §3, §4

ABL = ABL (Homo sapiens, UniProt P00519); details: Enzyme ABL
Protocol: as §1, §2, §3, §4

ALK = ALK (Homo sapiens, UniProt Q9UM73); details: Enzyme ALK
Chain of ALK (Q9UM73 19-1620): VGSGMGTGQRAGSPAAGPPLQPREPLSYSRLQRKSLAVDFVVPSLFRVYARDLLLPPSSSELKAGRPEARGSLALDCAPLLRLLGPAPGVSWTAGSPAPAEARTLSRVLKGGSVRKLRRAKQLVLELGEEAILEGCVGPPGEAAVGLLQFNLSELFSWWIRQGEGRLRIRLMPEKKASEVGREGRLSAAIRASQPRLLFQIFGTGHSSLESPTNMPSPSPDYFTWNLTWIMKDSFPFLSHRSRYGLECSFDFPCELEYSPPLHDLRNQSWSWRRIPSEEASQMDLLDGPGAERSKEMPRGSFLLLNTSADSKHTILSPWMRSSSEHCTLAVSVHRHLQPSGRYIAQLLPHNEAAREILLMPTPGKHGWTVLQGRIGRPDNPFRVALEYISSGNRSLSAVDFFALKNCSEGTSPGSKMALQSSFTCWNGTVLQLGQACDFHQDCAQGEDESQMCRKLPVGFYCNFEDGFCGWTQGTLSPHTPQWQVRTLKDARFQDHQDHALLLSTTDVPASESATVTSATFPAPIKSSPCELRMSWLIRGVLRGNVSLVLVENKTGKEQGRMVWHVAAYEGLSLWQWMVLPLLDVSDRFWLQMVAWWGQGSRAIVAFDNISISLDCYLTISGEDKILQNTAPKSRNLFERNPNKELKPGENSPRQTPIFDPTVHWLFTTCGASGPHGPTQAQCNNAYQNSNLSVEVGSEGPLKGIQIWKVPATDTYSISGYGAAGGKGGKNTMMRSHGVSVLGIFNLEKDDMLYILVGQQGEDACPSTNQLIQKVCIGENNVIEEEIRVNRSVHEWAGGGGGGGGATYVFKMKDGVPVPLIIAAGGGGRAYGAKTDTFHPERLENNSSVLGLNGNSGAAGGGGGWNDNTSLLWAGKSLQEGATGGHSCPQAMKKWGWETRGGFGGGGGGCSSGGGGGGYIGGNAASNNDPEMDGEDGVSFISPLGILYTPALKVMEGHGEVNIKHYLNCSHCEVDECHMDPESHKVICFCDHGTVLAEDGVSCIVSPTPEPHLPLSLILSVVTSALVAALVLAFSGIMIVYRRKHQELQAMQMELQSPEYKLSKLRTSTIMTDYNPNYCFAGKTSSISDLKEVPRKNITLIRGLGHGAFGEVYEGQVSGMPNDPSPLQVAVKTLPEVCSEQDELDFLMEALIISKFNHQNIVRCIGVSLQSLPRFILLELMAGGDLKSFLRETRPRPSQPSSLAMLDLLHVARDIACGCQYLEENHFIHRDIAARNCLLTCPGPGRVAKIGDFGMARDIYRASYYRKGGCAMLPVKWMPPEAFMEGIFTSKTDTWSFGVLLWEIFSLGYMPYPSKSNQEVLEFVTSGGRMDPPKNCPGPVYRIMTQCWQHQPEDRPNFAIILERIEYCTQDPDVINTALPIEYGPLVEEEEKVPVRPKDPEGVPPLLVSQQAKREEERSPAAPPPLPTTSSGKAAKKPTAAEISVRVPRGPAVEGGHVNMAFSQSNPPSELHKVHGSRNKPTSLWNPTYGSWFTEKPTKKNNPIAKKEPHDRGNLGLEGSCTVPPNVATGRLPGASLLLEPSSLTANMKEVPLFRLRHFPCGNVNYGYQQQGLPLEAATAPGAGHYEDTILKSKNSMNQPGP
Protocol: as §1
As example herein are reported the assay conditions used for testing the compounds of formula (I) against ALKtide YFF APCo kinase; • ATP concentration: 1 μM • Enzyme concentration: 100 nM • Reaction buffer: Hepes 50 mM pH 7.5, MgCl2 5 mM, MnCl2 1 mM, DTT 1 mM, Na3VO4 3 uM, 0.2 mg/ml BSA. • Assay procedure: add 5 ul compound of formula (I) (3×), add 5 μl ATP/S mix (3×) in buffer 1×; add 5 μl enzyme in buffer 2×+3×BSA; for the blank, add 5 μl buffer 2×+3×BSA without enzyme. After 90 minutes of incubation, add 15 μl/well of Kinase-Glo reagent. After 60-90 minutes of incubation to stabilize the luminescent signal, the plates are read on a ViuwLux instrument.
as §2, §3
Reaction conditions are target (enzyme) dependent and thus undergo individual adaptations. Also the buffer conditions may vary depending on the kinase of interest. […]

KIT = KIT (Homo sapiens, UniProt P10721); details: Enzyme KIT
Chain of KIT (P10721 26-976): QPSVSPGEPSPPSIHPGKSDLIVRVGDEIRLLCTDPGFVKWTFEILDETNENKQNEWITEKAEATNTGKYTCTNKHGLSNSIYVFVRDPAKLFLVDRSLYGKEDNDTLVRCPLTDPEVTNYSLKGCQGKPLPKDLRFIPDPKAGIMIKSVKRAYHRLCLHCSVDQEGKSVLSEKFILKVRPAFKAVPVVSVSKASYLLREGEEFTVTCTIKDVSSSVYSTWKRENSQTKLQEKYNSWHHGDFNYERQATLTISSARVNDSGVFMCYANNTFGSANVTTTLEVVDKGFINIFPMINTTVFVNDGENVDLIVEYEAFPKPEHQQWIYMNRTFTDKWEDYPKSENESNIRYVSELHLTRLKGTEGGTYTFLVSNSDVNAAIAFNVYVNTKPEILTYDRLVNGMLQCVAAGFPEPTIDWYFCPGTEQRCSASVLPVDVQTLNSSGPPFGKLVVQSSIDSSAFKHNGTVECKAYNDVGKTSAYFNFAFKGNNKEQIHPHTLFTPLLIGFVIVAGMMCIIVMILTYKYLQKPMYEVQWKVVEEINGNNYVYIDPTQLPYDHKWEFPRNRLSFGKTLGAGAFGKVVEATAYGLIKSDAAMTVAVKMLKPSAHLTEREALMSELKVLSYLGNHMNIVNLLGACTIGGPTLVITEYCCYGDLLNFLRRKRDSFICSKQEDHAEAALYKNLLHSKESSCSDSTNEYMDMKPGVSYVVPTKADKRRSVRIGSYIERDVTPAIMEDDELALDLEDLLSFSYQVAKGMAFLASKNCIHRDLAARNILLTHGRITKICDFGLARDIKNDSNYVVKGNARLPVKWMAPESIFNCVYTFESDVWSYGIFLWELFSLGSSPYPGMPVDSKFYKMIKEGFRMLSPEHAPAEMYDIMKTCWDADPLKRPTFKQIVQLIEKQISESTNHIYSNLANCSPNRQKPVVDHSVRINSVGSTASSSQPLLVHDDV
Protocol: as §1, §2, §3, §4

LYN = LYN (Homo sapiens, UniProt P07948); details: Enzyme LYN
Protocol: as §1, §2, §3, §4

EGFR1 = EGFR1 (Homo sapiens, UniProt P00533); details: Enzyme EGFR1
Protocol: as §1, §2, §3, §4

IC50 (ZAP70) | IC50 (MELK) | IC50 (Syk) | IC50 (LCK) | IC50 (BRK) | IC50 (ACK1) | IC50 (ABL) | IC50 (ALK) | IC50 (KIT) | also measured | Compound
800 nM | 3090 nM | 1630 nM |  |  |  |  |  |  |  | O=C(Nc1n[nH]c2c1CCCn1cc(C(=O)NC3CCCC3)cc1-2)c1cccnc1 [Example A32-M2-B28]
1830 nM |  | 3150 nM |  |  |  |  |  |  |  | CCS(=O)(=O)Nc1n[nH]c2c1CCCn1cc(C(=O)NCCOC)cc1-2 [Example A42-M2-B33]
590 nM | 2570 nM | 2100 nM |  |  |  |  |  |  |  | Cc1ccc(C(=O)Nc2n[nH]c3c2CCCn2cc(C(=O)N4CCCC4)cc2-3)cc1F [Example A30-M2-B8]
 |  |  | 3500 nM | 4350 nM | 1080 nM and 1580 nM | 4310 nM | 4910 nM |  | IC50 (PKCbeta): 4170 nM; IC50 (FGFR1): 5760 nM; IC50 (VEGFR3): 3980 nM | Cc1ccc(C(=O)Nc2n[nH]c3c2CCn2cc(C(=O)N4CCC(N5CCCCC5)CC4)cc2-3)c(C)c1 [Example A35-M1-B34]
1150 nM | 3000 nM | 2780 nM |  |  |  |  |  |  |  | CCN1CCN(C(=O)c2cc3n(c2)CCCc2c(NC(=O)c4cc(C)cc(C)c4)n[nH]c2-3)CC1 [Example A24-M2-B37]
 |  |  | 3990 nM | 860 nM | 360 nM | 820 nM | 5810 nM | 4130 nM | IC50 (VEGFR3): 4940 nM | O=C(Nc1n[nH]c2c1CCn1cc(C(=O)N3CCC(N4CCCCC4)CC3)cc1-2)c1ccccc1Cl [Example A5-M1-B34]
 |  |  |  |  | 490 nM and 300 nM | 3500 nM |  | 3520 nM | IC50 (LYN): 2130 nM | Cc1ccc(C(=O)Nc2n[nH]c3c2CCn2cc(C(=O)N4CCCC4)cc2-3)c(C)c1 [Example A35-M1-B8, 2,4-dimethyl-N-[8-(pyrrolidin-1-ylcarbonyl)-4,5-dihydro-1H-pyrazolo[4,3-g]indolizin-3-yl]benzamide]
1560 nM |  |  |  |  |  |  |  |  |  | O=C(NCc1ccncc1)c1cc2n(c1)CCCc1c(NC(=O)c3ccccc3)n[nH]c1-2 [Example A1-M2-B25]
 |  |  | 590 nM | 4680 nM | 1010 nM | 540 nM | 3400 nM | 1310 nM | IC50 (EGFR1): 7870 nM; IC50 (FGFR1): 7270 nM | O=C(NCCN1CCCC1)c1cc2n(c1)CCc1c(NC(=O)c3ccccc3Cl)n[nH]c1-2 [Example A5-M1-B43]
720 nM | 1230 nM | 480 nM |  |  | 1440 nM |  |  |  |  | CC(C)(C)C(=O)Nc1n[nH]c2c1CCCn1cc(C(=O)N3CCC(N4CCCCC4)CC3)cc1-2 [Example A33-M2-B34]
